In the supplement of paper PMC10307832:

Compound: C1=CC2=NC=CN=C2C=C1/C=C/3\C(=O)NC(=O)S3 + Cc1nc(NC(=O)N2CCC[C@H]2C(N)=O)sc1-c1ccnc(C(C)(C)C(F)(F)F)c1 [Alpelisib] (partner 2 µM)
Assay: relative viability (nuclei count vs DMSO), 5 days (fraction); higher = more cells survive
Conditions: first compound 0.02 µM
Method in brief: (§1)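 Values are medians from duplicate plates. Each reflects relative viability, defined as the nuclei count of treated wells over that of vehicle wells. Lung cancer cell lines in 1536-well plates were pin-tool dosed one day after seeding with one drug alone or with a fixed anchor-drug dose plus five library-drug doses (not always all listed) in √10 steps, then fixed, stained and imaged at 4× after 5 days.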

Cell Line	relative viability
BEN	1.07
HARA	0.749
NCI-H322M	0.835
LCLC-97TM1	0.234
NCI-H2009	1.24
A-427	1.06
NCI-H441	0.714
NCI-H661	0.651
NCI-H1734	0.707
NCI-H460	0.508
NCI-H2347	1.02
SK-LU-1	1.01
NCI-H1395	0.934
201T	0.955
NCI-H1915	1.02
HCC-827	1.05
LXF-289	0.999
NCI-H23	0.67
NCI-H647	0.865
CAL-12T	1.3
NCI-H1651	0.888
EPLC-272H	1.05
NCI-H2228	0.814
NCI-H1792	0.62
NCI-H1355	0.67
NCI-H3122	0.737
NCI-H1437	0.964

Same assay, conditions: first compound 0.06325 µM

Cell Line	relative viability
BEN	0.877
HARA	0.696
NCI-H322M	0.713
LCLC-97TM1	0.267
NCI-H2009	1.21
A-427	1.08
NCI-H441	0.844
NCI-H661	0.614
NCI-H460	0.514
NCI-H2347	1.09
SK-LU-1	1.5
NCI-H1395	1.14
201T	1.05
NCI-H1915	1.17
HCC-827	0.947
LXF-289	1.01
NCI-H23	0.803
NCI-H647	1.89
CAL-12T	1.11
NCI-H1651	1.03
EPLC-272H	1.05
NCI-H2228	1.12
NCI-H1792	0.501
NCI-H1355	0.776
NCI-H3122	0.854
NCI-H1437	1.04

Same assay, conditions: first compound 0.2 µM

Cell Line	relative viability
BEN	1.22
HARA	0.844
NCI-H322M	0.74
LCLC-97TM1	0.294
NCI-H2009	1.17
A-427	1.1
NCI-H661	0.952
NCI-H1734	0.741
NCI-H460	0.464
NCI-H2347	1.08
SK-LU-1	1.21
NCI-H1395	1.32
201T	1.01
NCI-H1915	1.03
HCC-827	1.04
LXF-289	1.06
NCI-H23	0.589
NCI-H647	1.28
CAL-12T	1.11
NCI-H1651	0.986
EPLC-272H	1.01
NCI-H2228	0.802
NCI-H1792	0.644
NCI-H1355	0.864
NCI-H3122	0.873
NCI-H1437	1.03

Same assay, conditions: first compound 0.6325 µM

Cell Line	relative viability
BEN	0.911
HARA	0.806
NCI-H322M	0.852
LCLC-97TM1	0.268
NCI-H2009	1.18
A-427	1.07
NCI-H441	0.876
NCI-H661	0.732
NCI-H1734	0.622
NCI-H460	0.429
NCI-H2347	1.07
SK-LU-1	1.05
NCI-H1395	0.922
201T	0.978
NCI-H1915	1.04
HCC-827	0.925
LXF-289	0.984
NCI-H23	0.692
NCI-H647	1.06
CAL-12T	1.3
NCI-H1651	0.937
EPLC-272H	0.833
NCI-H2228	0.674
NCI-H1792	0.658
NCI-H1355	0.773
NCI-H3122	0.766
NCI-H1437	0.936

Same assay, conditions: first compound 2 µM

Cell Line	relative viability
BEN	1.09
HARA	0.859
NCI-H322M	0.67
LCLC-97TM1	0.178
NCI-H2009	1.21
A-427	1.12
NCI-H441	0.636
NCI-H661	0.469
NCI-H1734	0.54
NCI-H460	0.379
NCI-H2347	1.02
SK-LU-1	0.968
NCI-H1395	1.39
201T	0.877
NCI-H1915	1.06
HCC-827	0.911
LXF-289	1.07
NCI-H23	0.567
NCI-H647	1.14
CAL-12T	1.15
NCI-H1651	0.996
EPLC-272H	0.939
NCI-H2228	0.664
NCI-H1792	0.657
NCI-H1355	0.751
NCI-H3122	0.602
NCI-H1437	0.844

Compound: CCN1CCN(c2ccc(Nc3cc(N(C)C(=O)Nc4c(Cl)c(OC)cc(OC)c4Cl)ncn3)cc2)CC1 [BGJ398] + CCNC(=O)c1noc(-c2cc(C(C)C)c(O)cc2O)c1-c1ccc(CN2CCOCC2)cc1 [Luminespib] (partner 0.01 µM)
Assay: as above
Conditions: first compound 0.01 µM
Method in brief: as §1

Cell Line	relative viability
BEN	0.376
HARA	0.652
NCI-H322M	0.887
LCLC-97TM1	0.703
NCI-H2009	1.06
A-427	0.903
NCI-H441	0.453
NCI-H661	0.926
NCI-H1734	0.178
NCI-H460	0.0344
NCI-H2347	0.396
SK-LU-1	0.215
NCI-H1395	0.63
201T	1.24
NCI-H1915	0.675
HCC-827	0.432
LXF-289	0.668
NCI-H23	0.228
NCI-H647	0.138
CAL-12T	0.257
NCI-H1651	0.989
EPLC-272H	0.29
NCI-H2228	0.111
NCI-H1792	0.406
NCI-H1355	0.683
NCI-H3122	0.0895
NCI-H1437	1.18

Same assay, conditions: first compound 0.03162 µM

Cell Line	relative viability
BEN	0.402
HARA	0.862
NCI-H322M	0.744
LCLC-97TM1	0.859
NCI-H2009	1.05
A-427	0.907
NCI-H441	0.346
NCI-H661	0.936
NCI-H1734	0.179
NCI-H460	0.0414
NCI-H2347	0.666
SK-LU-1	0.193
NCI-H1395	0.661
201T	0.976
NCI-H1915	0.826
LXF-289	0.643
NCI-H23	0.213
NCI-H647	0.107
CAL-12T	0.391
NCI-H1651	0.811
EPLC-272H	0.235
NCI-H2228	0.141
NCI-H1792	0.542
NCI-H1355	0.705
NCI-H3122	0.0973
NCI-H1437	1.19

Same assay, conditions: first compound 0.1 µM

Cell Line	relative viability
BEN	0.33
HARA	0.682
NCI-H322M	0.848
LCLC-97TM1	0.857
NCI-H2009	1.03
A-427	1
NCI-H441	0.318
NCI-H661	0.937
NCI-H1734	0.22
NCI-H460	0.0281
NCI-H2347	0.746
SK-LU-1	0.189
NCI-H1395	0.665
201T	1.07
NCI-H1915	0.852
HCC-827	0.405
LXF-289	0.578
NCI-H23	0.203
NCI-H647	0.157
CAL-12T	0.326
NCI-H1651	0.9
EPLC-272H	0.21
NCI-H2228	0.152
NCI-H1792	0.344
NCI-H1355	0.793
NCI-H3122	0.0991
NCI-H1437	1.05

Same assay, conditions: first compound 0.3162 µM

Cell Line	relative viability
BEN	0.376
HARA	0.374
NCI-H322M	0.788
LCLC-97TM1	0.823
NCI-H2009	1.02
A-427	0.794
NCI-H441	0.383
NCI-H661	0.851
NCI-H1734	0.171
NCI-H460	0.0308
NCI-H2347	0.471
SK-LU-1	0.188
NCI-H1395	0.557
201T	1.04
NCI-H1915	0.688
HCC-827	0.268
LXF-289	0.634
NCI-H23	0.22
NCI-H647	0.184
CAL-12T	0.4
NCI-H1651	0.949
EPLC-272H	0.716
NCI-H2228	0.139
NCI-H1792	0.401
NCI-H1355	0.735
NCI-H3122	0.0908
NCI-H1437	1.12

Same assay, conditions: first compound 1 µM

Cell Line	relative viability
BEN	0.597
HARA	0.679
NCI-H322M	0.85
LCLC-97TM1	0.797
NCI-H2009	0.972
A-427	0.81
NCI-H441	0.371
NCI-H661	0.852
NCI-H1734	0.17
NCI-H460	0.0303
NCI-H2347	0.453
SK-LU-1	0.197
NCI-H1395	0.415
201T	0.979
NCI-H1915	0.784
HCC-827	0.736
LXF-289	0.657
NCI-H23	0.189
NCI-H647	0.176
CAL-12T	0.232
NCI-H1651	0.773
EPLC-272H	0.451
NCI-H2228	0.128
NCI-H1792	0.277
NCI-H1355	0.696
NCI-H3122	0.0986
NCI-H1437	1.11
